# “Also recorded” adds a separate entry of the source.
# Legend:
# [1] = test system: Drosophila smn mutants; assay: Rescue of Drosophila smn mutant phenotypes by K+ channel antagonists; conditions: treatment with K+ channel antagonist; 4-(dimethylamino)pyridine data not shown
# [2] = test system: MS patients; conditions: cited from earlier work
# [3] = test system: smn^x7/smn^x7 mutant larvae; assay: Muscle area measurement, smn mutant larvae cultured on 4-AP
# [4] = test system: Canton S (CS) control larvae; assay: Muscle area measurement, control larvae cultured on 4-AP
# [5] = test system: Canton S (CS) control larvae
# [6] = test system: Canton S (CS) control larvae; remark: listed apart in the source
# [7] = test system: smn^x7/smn^x7 mutant larvae; assay: NMJ electrophysiology (eEPSP), smn mutant larvae; format: in vivo, Drosophila
# [8] = test system: Shaker channels; conditions: at concentration of 1 mM; cited from earlier work
# [9] = test system: tetrodotoxin toxicity; conditions: in vivo; cited from earlier work
# [10] = test system: wild-type larvae; assay: Titration of 4-AP in larval media for tolerability
# [11] = test system: other sodium, calcium, and potassium conductances; conditions: at concentration of 1 mM; cited from earlier work
# [12] = test system: smn^x7/smn^x7 mutant larvae; assay: Larval locomotion assay, smn mutant larvae; format: in vivo, Drosophila
# [13] = test system: smn^x7/smn^x7 mutant larvae; assay: Spontaneous motor rhythm recording, smn mutant larvae; format: in vivo, Drosophila
# [14] = test system: canine hereditary motor neuron disease; conditions: canine hereditary motor neuron disease (Pinter et al., 1997); cited from earlier work
# [15] = test system: Canton S (CS) control larvae; remark: listed apart in the source
# [16] = CS control larvae treated with 2 mM 4-AP, ± SEM
# [17] = control animals, 2 mM 4-AP, P<0.01
# [18] = smn mutants, 2 mM 4-AP, compared with 4-AP treated controls
# [19] = smn^x7/smn^x7 larvae treated with 2 mM 4-AP, ± SEM
smiles,measurement,setting,value
CN(C)c1ccncc1 [4-(dimethylamino) pyridine],effect on Drosophila smn mutant phenotypes,[1],rescued
"Nc1ccncc1 [4-AP, 4-aminopyridine]",patients with clinically important motor and visual improvements,"[2]; 17 temperature-sensitive MS patients, 7.5 to 52.5 mg in one to three daily doses, 1 to 5 days, thirteen of 17",76%
same,side effects,"[2]; 17 temperature-sensitive MS patients, 7.5 to 52.5 mg",No serious side effects
same,mean duration of improvements for two consecutive doses,[2]; average 8.53-hour treatment-observation period,7.07 h
same,initial responders with long-term benefits,[2]; long-term study (32 months),80-90%
same,duration of improvements as share of treatment-observation period,"[2]; two consecutive doses, average 8.53-hour period",83%
same,increase of muscle surface area compared to untreated smn mutants,"[3]; smn mutants grown on 2 mM 4-AP media, P<0.001",66%
same,effect on muscle size,"[3]; smn mutants, 2 mM 4-AP",increases; also recorded: significantly increased
same,Muscle 6 area,"[3]; smn^x7/smn^x7 larvae treated with 2 mM 4-AP throughout larval period, ± SEM",29.60 ± 3.09 ×10^3 × μm^2
same,effect on Drosophila smn mutant phenotypes,[1],positively benefitted; also recorded: rescued
same,Muscle 6 area,"[4]; CS control larvae treated with 2 mM 4-AP throughout larval period, ± SEM",38.08 ± 3.49 ×10^3 × μm^2
same,effect on muscle size,"[4]; control / wild-type animals, 2 mM 4-AP",no effect; also recorded: does not alter; also recorded: did not affect
same,Inter-spike interval,[5]; [16],68.89 ± 4.23 ms
same,effect on motor rhythm,"[5]; control animals, 2 mM 4-AP",inhibits
same,decrease of rhythmic motor activity,[5]; [17],40%
same,eEPSP amplitude,[6]; [16],26.67 ± 2.91 mV
same,reduction of NMJ eEPSP amplitudes,"[6]; control animals, 2 mM 4-AP, P<0.001",21%
same,reduction of increased NMJ EPSP amplitude,"[7]; smn mutants treated with 2 mM 4-AP, P<0.001",27%
same,effect on NMJ neurotransmitter release / eEPSP amplitude,[7]; [18],corrects; also recorded: fully corrected
same,eEPSP amplitude,[7]; [19],32.40 ± 2.48 mV
same,inhibition of Shaker channels,[8],selectively and reversibly inhibits
same,effect on tetrodotoxin toxicity,[9],reverse tetrodotoxin toxicity
same,maximum dosage tolerated without lethality,"[10]; added to larval media, wild-type larvae",2 mM
same,toxicity at maximum tolerated dose,"[10]; control animals, 2 mM throughout larval period",mild systemic toxicity
same,"effect on other sodium, calcium, and potassium conductances",[11],without significant effect
same,increase of locomotion,"[12]; smn mutants grown on 2 mM 4-AP media, P<0.05",55%
same,effect on locomotion,[12]; [18],corrects; also recorded: significantly increased
same,Locomotion,[12]; [19],2.65 ± 0.10 cm/min
same,remaining increase in inter-spike interval above controls treated with 4-AP,"[13]; smn mutants grown on 2 mM 4-AP media, p<0.001",31%
same,effect on defects in motor rhythm,"[13]; smn mutants, 2 mM 4-AP",substantially improved; also recorded: substantially corrects; also recorded: fully corrected
same,Inter-spike interval,[13]; [19],89.98 ± 4.98 ms
same,effect on muscle twitch tension,[14],can improve
same,Locomotion,[15]; [16],3.06 ± 0.40 cm/min
same,reduction of larval locomotion,[15]; [17],35%

# Source: patent publication US20150064234A1, “4-AMINOPYRIDINE AS A THERAPEUTIC AGENT FOR SPINAL MUSCULAR ATROPHY” (THE TRUSTEES OF COLUMBIA UNIVERSITY IN THE CITY OF NEW YORK, priority 2012, published 2015)
